Experimental data: US10493061B2, “Compositions and methods comprising 2-(acylamino)imidazoles” (priority 2014, dated 2019)

Tests used:
[1] = test system: hTERT-HMEC normal mammary epithelial cells; assay: Dose response, ATP cell viability assay; assay type: cell-based, human
MCF-10A cells = assay: Total cellular Zn^2+ by ICP-AES; assay type: cell-based, human; details: 30 μM ZNA with 30 μM ZnSO4, three hours; detection limit 1.00 μg/L
Experimental: (§1) Inductively coupled plasma-atomic emission spectroscopy (ICP-AES) analysis: Cells were cultured to 80% confluence in 10-cm plates and the growth media was then replaced with low serum (2% FBS) drug-containing media. After three hours of treatment, the media was discarded and the cells washed with 1×PBS. To each 10-cm plate, 1 mL of nitric acid (TraceSELECT Ultra for trace analysis, Sigma) was added directly to the plate. The nitric acid mixture was submitted for inductively coupled plasma-atomic emission spectroscopy (ICP-AES) analysis following methods established by the Environmental Protection Agency. Martin T D, Brockhoff C A, Creed J T. Method 200.7 Determination of Metals and Trace Elements in Water and Wastes by Inductively Coupled Plasma-Atomic Emission Spectrometry. Environmental Monitoring Systems Laboratory, US Environmental Protection Agency 1994. The experiment was performed in triplicate for each cell line and a fourth plate of cells was used to measure total protein (BCA assay, Thermo Fisher, Waltham, Mass., USA). The ICP-AES data were then normalized to total protein for each cell line used.
(§2) To further validate the combinatorial effect of ZNA and Zn^2+, inductively coupled plasma-atomic emission spectroscopy (ICP-AES) was employed to quantify absolute levels of cellular Zn^2+ following treatment. Four cell lines were treated with either 30 μM ZNA alone or 30 μM ZNA in conjunction with 30 μM ZnSO4 for three hours before harvesting. The samples were then analyzed by ICP-AES and the resulting data normalized to total protein (FIG. 8). […] The values obtained from the ICP-AES experiment correlate with the trends observed following FluoZin-3 measurements of Zn^2+, confirming the specificity of the fluorophore for Zn^2+ over other ions.

MCF-7 cells = assay: Total cellular Zn^2+ by ICP-AES; assay type: cell-based, human; details: 30 μM ZNA with 30 μM ZnSO4, three hours
Experimental: as §1, §2

MDA-MB-231 cells = assay: Total cellular Zn^2+ by ICP-AES; assay type: cell-based, human; details: 30 μM ZNA with 30 μM ZnSO4, three hours
Experimental: as §1, §2

T47D cells = assay: Total cellular Zn^2+ by ICP-AES; assay type: cell-based, human; details: 30 μM ZNA with 30 μM ZnSO4, three hours
Experimental: as §1, §2

[2] = test system: mouse metallothionein expression (MT1 and MT2) in renal and hepatic tissue; assay: RT-PCR of metallothionein expression in tissue of treated mice; assay type: in vivo, FVB/NJ mice; details: ZNA 100 mg/kg intraperitoneal
Experimental: Real-Time PCR (RT-PCR): For experiments designed to measure gene expression, real-time PCR (RT-PCR) was conducted using a LightCycler 480 (Roche, Basel, Switzerland) and KAPA SYBR FAST qPCR Master Mix (Kapa Biosystems, Boston, Mass., USA). […] Genomic DNA was removed with a DNase digest and 1 μg of RNA was used to synthesize cDNA using a Superscript III Reverse Transcriptase kit from Invitrogen per the manufacturer's protocol; after an RNase H digestion, RT-PCR was performed in a 5 μL reaction using KAPA SYBR FAST qPCR Master Mix (Kapa Biosystems, Boston, Mass., USA). […]; Nat Protocols 2008; 3(6):1101-08. For tissue derived from mouse in vivo experiments, fresh tissue was homogenized using a TissueLyser II for 3 minutes at 30 Hz before isolating RNA.
The next experiment established the relevancy of the biological pathways targeted by ZNA in a whole organism tumor model. To establish bioactivity, the response of normal tissue to ZNA was evaluated. Non-tumor bearing FVB/NJ mice were treated with ZNA (at 100 mg/kg administered via intraperitoneal injection) or a control for either 3 or 24 hours. RT-PCR was used to assess mouse metallothionein expression (MT1 and MT2) in renal and hepatic tissue from the treated mice.

in vivo = assay: in vivo; parameters: species or system Sprague-Dawley rats; details: rat
Experimental: ZNA has promising pkpd parameters. An initial pharmacokinetic (PK) analysis on ZNA was performed at 1 mg/kg IV, 5 mg/kg PO. ZNA was dosed to female Sprague-Dawley rats at either 1 mg/kg intravenously or at 5 mg/kg orally. Plasma was collected with K2EDTA and stored at −80° C. until analysis. Quantification of ZNA was performed by protein precipitation followed by ultra-high performance liquid chromatography (UHPLC) interfaced to an electrospray ionization quadrapole time-of-flight mass spectrometer (ESI-QTOF). Plasma concentrations were determined from a calibration curve using […]. The values determined were fit with Phoenix WinNonlin and pharmacokinetic values reported.
The plasma concentrations for ZNA were very low, and most samples fell below the lower limit of quantification for the assay (10.0 ng/mL). This limited the data available for fitting in WinNonlin. To increase the amount of data for fitting, values from below the curve were extrapolated to approximately 40% of the LLOQ and were used for PK fitting. The percent of the area extrapolated in the PO PK animals ranged from 34-70% which was considered quite high. […] The oral bioavailability determined was approximately 6%. This value is considered a rough estimate based upon the area extrapolated and the unusually high clearance determined. […] Possible explanations for the high clearance are binding of compound to red blood cells, extremely rapid clearance that requires collection of earlier time points to establish a more accurate CO, and extrahepatic elimination.

[3] = test system: metal trafficking genes (MT1F, MT1X, MT2A, SLC30A1, SLC30A2) in MCF-7 cells; assay: Transcriptome sequencing (RNA-seq); details: 30 μM ZNA, 3 hours, sustained at 12 hours

COc1ccc(-c2c(Cc3ccccc3)[nH]/c(=N\C(=O)c3ccccc3F)n2C)cc1 [ZNA, (E)-N-(4-benzyl-5-(4-methoxyphenyl)-1-methyl-1H-imidazol-2(3H)-ylidene)-2-fluorobenzamide]
cell viability [1]: largely unaffected
concentration of Zn^2+ (MCF-10A cells): not detectable
concentration of Zn^2+ (MCF-7 cells): 1.35 ng Zn^2+ per microgram of protein
concentration of Zn^2+ (MDA-MB-231 cells): 0.82 ng Zn^2+ per microgram of protein
concentration of Zn^2+ (T47D cells): 0.52 ng Zn^2+ per microgram of protein
MT1 and MT2 expression ([2]; 3 hours, vs control treated mice): increased
MT1 and MT2 expression ([2]; 24 hours): decreased
bioavailability (in vivo; female, Sprague-Dawley): ~6%
half-life (in vivo; female, Sprague-Dawley): 1.9 h
clearance relative to hepatic blood flow (in vivo; female, Sprague-Dawley, iv): 235%
AUC(0-inf) (in vivo; female, Sprague-Dawley, iv, 1 mg/kg, AUCINF_obs): 129 ng·h/mL
AUC (in vivo; female, Sprague-Dawley, iv, 1 mg/kg, AUCall): 119 ng·h/mL
MRT inf (in vivo; female, Sprague-Dawley, iv, 1 mg/kg, MRTINF_obs): 2.1 h
percent of the area extrapolated (in vivo; female, Sprague-Dawley, po): 34-70%
Cmax (in vivo; female, Sprague-Dawley, po, 5 mg/kg, Cmax): 11.5 ng/mL
volume of distribution (in vivo; iv): very high volume of distribution
metallothionein gene expression (MT1F, MT1X, MT2A) [3]: increased metallothionein gene expression
